Tests used:
[1] = test system: RKO (RKOp27) human colon adenocarcinoma cells; assay: Alamar Blue cell viability assay, anti-proliferative/cytotoxic activity on proliferating (uninduced) RKO p27 cells; type: cell-based; details: RKOp27, 72 h, proliferating cells without inducer Ponasterone A
Procedure: The anti-proliferative/cytotoxic activity of the compounds described herein, can be tested on subclones of RKO (RKOp27) human colon adenocarcinoma cells (Schmidt et al., Oncogene 19, 2423-2429; 2000) using the Alamar Blue cell viability assay (described in O'Brien et al. Eur J Biochem 267, 5421-5426, 2000). The compounds are dissolved as 20 mM solutions in dimethylsulfoxide (DMSO) and subsequently diluted in semi-logarithmic steps. DMSO dilutions are further diluted 1:100 into Dulbecco's modified Eagle's medium (DMEM) containing 10% fetal calf serum to a final concentration twice as much as the final concentration in the test. RKO subclones are seeded into 96 well flat bottom plates at a density of 4000 cells per well in a volume of 50 μl per well. 24 hours after seeding the 50 μl each of the compound dilutions in DMEM medium are added into each well of the 96 Well plate. Each compound dilution is tested as quadruplicates. Wells containing untreated control cells are filled with 50 μl DMEM medium containing 1% DMSO. The cells are then incubated with the substances for 72 hours at 37° C. in a humidified atmosphere containing 5% carbon dioxide. To determine the viability of the cells, 10 μl of an Alamar Blue solution (Biosource) are added and the fluorescence is measured at an extinction of 544 nm and an emission of 590 nm. For the calculation of the cell viability the emission value from untreated cells is set as 100% viability and the emission rates of treated cells are set in relation to the values of untreated cells. Viabilities are expressed as % values.
The corresponding IC50 values of the compounds for anti-proliferative/cytotoxic activity are determined from the concentration-effect curves.
Representative IC50 values for anti-proliferation/cytotoxicity determined in the mentioned assay follow from the following table A, in which the numbers of the compound correspond to the numbers of the examples.

[2] = test system: RKOp27 colon adenocarcinoma cells arrested by expression of ectopic p27Kip1; assay: Alamar Blue cell viability assay on RKO p27 cells arrested by Ponasterone A induced p27Kip1 (cell cycle specific mode of action); type: cell-based; details: Homo sapiens, 72 hours, cells arrested by p27Kip1 induced with 10 μM Ponasterone A
Procedure: To determine the cell cycle specific mode of action, subclones of RKO colon adenocarcinoma cells (RKOp27 or RKOp21 as described by Schmidt et al. in Oncogene 19, 2423-2429; 2000) are seeded into 96 well flat bottom plates at a density of 16000 cells per well in a volume of 50 μl per well in DMEM growth medium with 10% FCS containing 10 μM Ponasterone A. 24 hours after seeding the 50 μl each of the compound dilutions in DMEM medium are added into each well of the 96 Well plate. Each compound dilution is tested as quadruplicates. Wells containing untreated control cells are filled with 50 μl DMEM medium containing 1% DMSO. The cells are then incubated with the substances for 72 hours at 37° C. in a humidified atmosphere containing 5% carbon dioxide. To determine the viability of the cells, 10 μl of an Alamar Blue solution (Biosource) are added and the fluorescence was measured at an extinction of 544 nm and an emission of 590 nm. For the calculation of the cell viability the emission value from untreated cells is set as 100% viability and the emission rates of treated cells are set in relation to the values of untreated cells. Viabilities are expressed as % values. Viability is compared of proliferating cells grown in the absence of the inducer Ponasterone A, versus viability of cells arrested by the expression of ectopic p27Kip1 induced by Ponasterone A.

Structure (SMILES)	IC50 [1] [nM]	IC50 [2] [nM]
CCOC(=O)N1CCc2c(sc(NC(=O)C3CC3c3cc(C)ccc3OC)c2C#N)C1 (centres unmarked) [Example 54, 3-Cyano-2-({1-[2-(2-methoxy-5-methyl-phenyl)-cyclopropyl]-methanoyl}-amino)-4,7-dihydro-5H-thieno[2,3-c]pyridine-6-carboxylic acid ethyl ester]	300 to 2000	> 100000
COc1ccc(OC)c(CCC(=O)Nc2sc3c(c2C#N)CCN(C(=O)OCCc2ccccn2)C3)c1 [Example 55, 3-Cyano-2-[3-(2,5-dimethoxy-phenyl)-propanoylamino]-4,7-dihydro-5H-thieno[2,3-c]pyridine-6-carboxylic acid 2-pyridin-2-yl-ethyl ester]	300 to 2000	> 100000
COc1ccc(C)cc1CCC(=O)Nc1sc2c(c1C#N)CCN(C(=O)OCCN1CCOCC1)C2 [Example 56, 3-Cyano-2-[3-(2-methoxy-5-methyl-phenyl)-propanoylamino]-4,7-dihydro-5H-thieno[2,3-c]pyridine-6-carboxylic acid 2-morpholin-4-yl-ethyl ester]	300 to 2000	> 100000
COc1ccc(C)cc1CCC(=O)Nc1sc2c(c1C#N)CCN(C(=O)OCc1cnccc1OC)C2 [Example 57, 3-Cyano-2-[3-(2-methoxy-5-methyl-phenyl)-propanoylamino]-4,7-dihydro-5H-thieno[2,3-c]pyridine-6-carboxylic acid 4-methoxy-pyridin-3-ylmethyl ester]	300 to 2000	≥ 40000
COc1cccc(CCC(=O)Nc2sc3c(c2C#N)CCN(C(=O)OCCn2ccnc2)C3)c1 [Example 58, 3-Cyano-2-[3-(3-methoxy-phenyl)-propanoylamino]-4,7-dihydro-5H-thieno[2,3-c]pyridine-6-carboxylic acid 2-imidazol-1-yl-ethyl ester]	300 to 2000	> 100000
COc1ccccc1CCC(=O)Nc1sc2c(c1C#N)CCN(C(=O)OCCc1cccnc1)C2 [Example 61, 3-Cyano-2-[3-(2-methoxy-phenyl)-propanoylamino]-4,7-dihydro-5H-thieno[2,3-c]pyridine-6-carboxylic acid 2-pyridin-3-yl-ethyl ester]	≤ 300	> 100000
COc1ccccc1CCC(=O)Nc1sc2c(c1C#N)CCN(C(=O)OCCc1ccncc1)C2 [Example 62, 3-Cyano-2-[3-(2-methoxy-phenyl)-propanoylamino]-4,7-dihydro-5H-thieno[2,3-c]pyridine-6-carboxylic acid 2-pyridin-4-yl-ethyl ester]	≤ 300	> 100000
COc1cccc(CCC(=O)Nc2sc3c(c2C#N)CCN(C(=O)OCCc2cccnc2)C3)c1 [Example 63, 3-Cyano-2-[3-(3-methoxy-phenyl)-propanoylamino]-4,7-dihydro-5H-thieno[2,3-c]pyridine-6-carboxylic acid 2-pyridin-3-yl-ethyl ester]	≤ 300	≥ 40000
COc1cccc(CCC(=O)Nc2sc3c(c2C#N)CCN(C(=O)OCCc2ccncc2)C3)c1 [Example 64, 3-Cyano-2-[3-(3-methoxy-phenyl)-propanoylamino]-4,7-dihydro-5H-thieno[2,3-c]pyridine-6-carboxylic acid 2-pyridin-4-yl-ethyl ester]	≤ 300	> 100000
COc1ccccc1CCC(=O)Nc1sc2c(c1C#N)CCN(C(=O)OCCn1ccnc1)C2 [Example 73, 3-Cyano-2-[3-(2-methoxy-phenyl)-propanoylamino]-4,7-dihydro-5H-thieno[2,3-c]pyridine-6-carboxylic acid 2-imidazol-1-yl-ethyl ester]	≤ 300	> 100000
COc1ccc(C)cc1CCC(=O)Nc1sc2c(c1C#N)CCN(C(=O)OCCc1ccncc1)C2 [Example 106, 3-Cyano-2-[3-(2-methoxy-5-methyl-phenyl)-propanoylamino]-4,7-dihydro-5H-thieno[2,3-c]pyridine-6-carboxylic acid 2-pyridin-4-yl-ethyl ester]	≤ 300	> 100000
COc1cccc(CCC(=O)Nc2sc3c(c2C#N)CCN(C(=O)OCc2nccn2C)C3)c1 [Example 119, 3-Cyano-2-[3-(3-methoxy-phenyl)-propanoylamino]-4,7-dihydro-5H-thieno[2,3-c]pyridine-6-carboxylic acid 1-methyl-1H-imidazol-2-ylmethyl ester]	≤ 300	> 100000
COc1ccccc1CCC(=O)Nc1sc2c(c1C#N)CCN(C(=O)OCc1nccn1C)C2 [Example 122, 3-Cyano-2-[3-(2-methoxy-phenyl)-propanoylamino]-4,7-dihydro-5H-thieno[2,3-c]pyridine-6-carboxylic acid 1-methyl-1H-imidazol-2-ylmethyl ester]	≤ 300	≥ 10000
COc1ccccc1CCC(=O)Nc1sc2c(c1C#N)CCN(C(=O)OCc1cncn1C)C2 [Example 123, 3-Cyano-2-[3-(2-methoxy-phenyl)-propanoylamino]-4,7-dihydro-5H-thieno[2,3-c]pyridine-6-carboxylic acid 3-methyl-3H-imidazol-4-ylmethyl ester]	≤ 300	> 100000
COc1ccccc1CCC(=O)Nc1sc2c(c1C#N)CCN(C(=O)OCCn1ccnc1C)C2 [Example 124, 3-Cyano-2-[3-(2-methoxy-phenyl)-propanoylamino]-4,7-dihydro-5H-thieno[2,3-c]pyridine-6-carboxylic acid 2-(2-methyl-imidazol-1-yl)-ethyl ester]	≤ 300	≥ 10000
COc1ccc(C)cc1CCC(=O)Nc1sc2c(c1C#N)CCN(C(=O)OCc1cncn1C)C2 [Example 130, 3-Cyano-2-[3-(2-methoxy-5-methyl-phenyl)-propanoylamino]-4,7-dihydro-5H-thieno[2,3-c]pyridine-6-carboxylic acid 3-methyl-3H-imidazol-4-ylmethyl ester]	300 to 2000	≥ 10000
COc1ccc(C)cc1CCC(=O)Nc1sc2c(c1C#N)CCN(C(=O)OCCn1ccnc1C)C2 [Example 131, 3-Cyano-2-[3-(2-methoxy-5-methyl-phenyl)-propanoylamino]-4,7-dihydro-5H-thieno[2,3-c]pyridine-6-carboxylic acid 2-(2-methyl-imidazol-1-yl)-ethyl ester]	≤ 300	≥ 40000
COc1ccc(C)cc1CCC(=O)Nc1sc2c(c1C#N)CCN(C(=O)OCCn1ccnc1)C2 [Example 132, 3-Cyano-2-[3-(2-methoxy-5-methyl-phenyl)-propanoylamino]-4,7-dihydro-5H-thieno[2,3-c]pyridine-6-carboxylic acid 2-imidazol-1-yl-ethyl ester]	≤ 300	≥ 40000
COc1cccc(CCC(=O)Nc2sc3c(c2C#N)CCN(C(=O)OCCn2cnc(C)c2)C3)c1 [Example 142, 3-Cyano-2-[3-(3-methoxy-phenyl)-propanoylamino]-4,7-dihydro-5H-thieno[2,3-c]pyridine-6-carboxylic acid 2-(4-methyl-imidazol-1-yl)-ethyl ester]	≤ 300	> 100000
COc1ccccc1CCC(=O)Nc1sc2c(c1C#N)CCN(C(=O)OCC(=O)O)C2 [Example 153, 3-Cyano-2-[3-(2-methoxy-phenyl)-propanoylamino]-4,7-dihydro-5H-thieno[2,3-c]pyridine-6-carboxylic acid carboxymethyl ester]	300 to 2000	> 100000
COc1ccc(C)cc1CCC(=O)Nc1sc2c(c1C#N)CCN(C(=O)OCC(=O)O)C2 [Example 155, 3-Cyano-2-[3-(2-methoxy-5-methyl-phenyl)-propanoylamino]-4,7-dihydro-5H-thieno[2,3-c]pyridine-6-carboxylic acid carboxymethyl ester]	300 to 2000	> 100000
CCOc1ccccc1CCC(=O)Nc1sc2c(c1C#N)CCN(C(=O)OCC(=O)OC)C2 [Example 190, 3-Cyano-2-[3-(2-ethoxy-phenyl)-propanoylamino]-4,7-dihydro-5H-thieno[2,3-c]pyridine-6-carboxylic acid methoxycarbonylmethyl ester]	≤ 300	> 100000
